Data from ChEMBL document CHEMBL1148281, “Carbonic anhydrase inhibitors: synthesis and topical intraocular pressure lowering effects of fluorine-containing inhibitors devoid of enhanced reactivity” (J Med Chem, 2004).

What was measured:
[1] = Reactivity against cysteine after 24 hours of incubation; assay type: functional
[2] = Reactivity against glutathione after 24 hours of incubation; assay type: functional
Carbonic anhydrase 1 = Carbonic anhydrase 1 (Homo sapiens, UniProt P00915)
Description: In vitro inhibitory activity against human carbonic anhydrase I (hCAI)

Carbonic anhydrase 2 = Carbonic anhydrase 2 (Homo sapiens, UniProt P00918)
Description: In vitro inhibitory activity against human carbonic anhydrase II (hCAII)

Carbonic anhydrase 4 = target: T1, Carbonic anhydrase 4 (Bos taurus, UniProt Q95323)
T1 sequence (Q95323 whole entry): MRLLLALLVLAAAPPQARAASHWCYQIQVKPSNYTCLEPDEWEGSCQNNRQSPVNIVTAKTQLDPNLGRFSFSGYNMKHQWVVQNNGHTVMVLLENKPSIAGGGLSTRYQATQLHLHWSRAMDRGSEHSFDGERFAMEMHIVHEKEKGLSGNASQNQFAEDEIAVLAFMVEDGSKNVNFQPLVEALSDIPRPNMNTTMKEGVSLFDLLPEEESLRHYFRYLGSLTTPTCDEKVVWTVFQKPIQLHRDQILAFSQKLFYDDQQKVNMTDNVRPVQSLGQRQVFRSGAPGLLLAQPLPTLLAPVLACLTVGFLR
Description: In vitro inhibitory activity against bovine carbonic anhydrase IV (CAIV)

Chain of Carbonic anhydrase 1 (P00915 whole entry): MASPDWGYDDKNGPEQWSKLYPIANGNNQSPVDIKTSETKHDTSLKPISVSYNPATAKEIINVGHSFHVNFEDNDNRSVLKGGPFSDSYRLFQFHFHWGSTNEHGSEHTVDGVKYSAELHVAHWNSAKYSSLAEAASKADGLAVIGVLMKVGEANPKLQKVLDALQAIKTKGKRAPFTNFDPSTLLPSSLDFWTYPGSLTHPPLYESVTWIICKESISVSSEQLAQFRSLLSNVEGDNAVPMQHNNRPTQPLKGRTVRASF

Ki (Carbonic anhydrase 1)	Ki (Carbonic anhydrase 2)	Ki (Carbonic anhydrase 4)	SMILES	Reactivity [1]	Reactivity [2]
–	–	–	COc1ccc(NS(=O)(=O)c2c(F)c(F)c(F)c(F)c2F)cc1	98%	96%
1.75 µM	0.044 µM	0.485 µM	NS(=O)(=O)c1ccccc1NC(=O)Nc1c(F)c(F)c(F)c(F)c1F	–	–
–	–	0.049 µM	NS(=O)(=O)c1ccc(CCNS(=O)(=O)c2ccc(NC(=O)c3c(F)c(F)cc(F)c3F)cc2)cc1	–	–
–	–	0.054 µM	NS(=O)(=O)c1ccc(CNS(=O)(=O)c2ccc(NC(=O)c3c(F)c(F)cc(F)c3F)cc2)cc1	–	–
–	–	0.031 µM	NS(=O)(=O)c1ccc(NC(=O)c2c(F)c(F)cc(F)c2F)c(F)c1	0%	0%
–	–	–	NS(=O)(=O)c1ccc(NC(=O)c2c(F)c(F)c(F)c(F)c2F)c(F)c1	55%	49%
1.3 µM	0.08 µM	0.245 µM	NS(=O)(=O)c1ccc(NC(=O)Nc2c(F)c(F)c(F)c(F)c2F)c(Cl)c1	–	–
–	–	0.69 µM	NS(=O)(=O)c1ccccc1NC(=O)c1c(F)c(F)cc(F)c1F	–	–
–	–	0.024 µM	NS(=O)(=O)c1nnc(NC(=O)c2c(F)c(F)cc(F)c2F)s1	–	–
–	–	–	NS(=O)(=O)c1nnc(NS(=O)(=O)c2c(F)c(F)c(F)c(F)c2F)s1	76%	68%
–	–	0.05 µM	NS(=O)(=O)c1ccc(NC(=O)c2c(F)c(F)cc(F)c2F)c(Br)c1	–	–
–	–	0.094 µM	NS(=O)(=O)c1ccc(CCNC(=O)c2c(F)c(F)cc(F)c2F)cc1	–	–
–	–	0.135 µM	NS(=O)(=O)c1ccc(CNS(=O)(=O)c2c(F)c(F)cc(F)c2F)cc1	–	–
–	–	0.43 µM	NS(=O)(=O)c1cccc(NC(=O)Nc2c(F)c(F)c(F)c(F)c2F)c1	–	–
–	–	0.063 µM	NS(=O)(=O)c1ccc(NS(=O)(=O)c2ccc(NC(=O)c3c(F)c(F)cc(F)c3F)cc2)cc1	–	–
0.94 µM	0.015 µM	0.041 µM	NS(=O)(=O)c1ccc(CCNC(=O)Nc2c(F)c(F)c(F)c(F)c2F)cc1	–	–
0.74 µM	0.016 µM	0.058 µM	NS(=O)(=O)c1cc(S(N)(=O)=O)c(NC(=O)Nc2c(F)c(F)c(F)c(F)c2F)cc1Cl	–	–
–	–	0.015 µM	NS(=O)(=O)c1nnc(NS(=O)(=O)c2c(F)c(F)cc(F)c2F)s1	0%	0%
0.32 µM	0.013 µM	0.021 µM	NS(=O)(=O)c1ccc(Nc2ccnc(NS(=O)(=O)c3c(F)c(F)cc(F)c3F)n2)cc1	–	–
0.93 µM	0.061 µM	0.049 µM	NS(=O)(=O)c1ccc(NS(=O)(=O)c2c(F)c(F)cc(F)c2F)c(Cl)c1	–	–
–	–	0.042 µM	NS(=O)(=O)c1ccc(NC(=O)c2c(F)c(F)cc(F)c2F)c(Cl)c1	–	–
0.76 µM	0.018 µM	0.063 µM	NS(=O)(=O)c1ccc(NC(=O)Nc2c(F)c(F)c(F)c(F)c2F)c(F)c1	–	–
1.96 µM	0.095 µM	0.36 µM	NS(=O)(=O)c1ccc(NC(=O)Nc2c(F)c(F)c(F)c(F)c2F)c(Br)c1	–	–
–	–	0.076 µM	NS(=O)(=O)c1ccc(CCNS(=O)(=O)c2c(F)c(F)cc(F)c2F)cc1	–	–
–	–	0.4 µM	NS(=O)(=O)c1ccc(NC(=O)c2c(F)c(F)cc(F)c2F)cc1	–	–
–	–	0.021 µM	NS(=O)(=O)c1ccc(NC(=O)Nc2c(F)c(F)c(F)c(F)c2F)cc1	0%	0%
–	–	0.12 µM	NS(=O)(=O)c1ccc(CNC(=O)c2c(F)c(F)cc(F)c2F)cc1	–	–
0.27 µM	0.0014 µM	0.028 µM	Cn1nc(S(N)(=O)=O)s/c1=N/C(=O)c1c(F)c(F)cc(F)c1F	–	–
1.3 µM	0.025 µM	0.33 µM	NS(=O)(=O)c1ccc(NS(=O)(=O)c2c(F)c(F)cc(F)c2F)cc1	–	–
–	–	0.43 µM	NS(=O)(=O)c1cccc(NC(=O)c2c(F)c(F)cc(F)c2F)c1	–	–

SMILES	Ki (Carbonic anhydrase 1)	Ki (Carbonic anhydrase 2)	Ki (Carbonic anhydrase 4)	Reactivity [1]	Reactivity [2]
NS(=O)(=O)c1ccc(NS(=O)(=O)c2c(F)c(F)cc(F)c2F)c(F)c1	0.58 µM	0.0038 µM	0.042 µM	–	–
NS(=O)(=O)c1nnc(NC(=O)Nc2c(F)c(F)c(F)c(F)c2F)s1	0.27 µM	0.0036 µM	0.045 µM	–	–
NS(=O)(=O)c1ccc(CNC(=O)Nc2c(F)c(F)c(F)c(F)c2F)cc1	1 µM	0.015 µM	0.05 µM	–	–
